{"source": "patent US11096991B2", "about": "“Nanoreactor using polyion complex polymersomes, and method for producing same” (THE UNIVERSITY OF TOKYO, priority 2015, dated 2021)", "key": {"[1]": {"test_system": "α-galactosidase (α-GAL), free (unencapsulated)", "assay": "Enzyme activity of free α-GAL, Michaelis-Menten/Lineweaver-Burk plot with Gal-AMC", "assay_type": "biochemical", "details": "substrate Gal-AMC, PBS, 37° C., AMC fluorescence Ex/Em=350 nm/450 nm", "protocol": "Enzyme activity was evaluated with respect to free α-GAL and encapsulated α-GAL, respectively. The enzyme activity of α-GAL was checked by the reaction with a substrate, α-galactosyl-β-(7-amide-4-methyl coumarin) (also referred to as “Gal-AMC”) as shown in FIG. 19B. Gal-AMC is decomposed by the enzyme activity of α-GAL to produce 7-amino-4-methyl coumarin (also referred to as “AMC”), which emits fluorescence (Ex/Em=350 nm/450 nm).\nMore specifically, first, PBS solutions of Gal-AMC, free α-GAL, and encapsulated α-GAL were each placed in a thermostatic chamber and allowed to stand still at 37° C. Thereafter, the Gal-AMC solution was mixed with the free α-GAL or encapsulated α-GAL solution. From the solution mixture, an aliquot (predetermined amount) was taken and immediately poured to a 96 well plate (TECAN). The plate was placed in a multiplate reader kept at 37° C. in advance and fluorescence intensity was measured periodically for a predetermined time.\nThe enzyme activity was evaluated by preparing the Michaelis-Menten plot and Lineweaver-Burk plot. At this time, using a calibration curve previously prepared by using an AMS standard solution, a change of fluorescence intensity was converted into the production rate of a product. In this manner, a reaction rate V was obtained. Measurement was performed by changing the substrate concentration [S] variously. […]"}, "[2]": {"test_system": "α-galactosidase (α-GAL), encapsulated in PICsome", "assay": "Enzyme activity of α-GAL encapsulated in PICsome, Michaelis-Menten/Lineweaver-Burk plot with Gal-AMC", "assay_type": "biochemical", "details": "substrate Gal-AMC, PBS, 37° C., AMC fluorescence Ex/Em=350 nm/450 nm", "protocol": "In the same manner as in Section 5 of Example 1, a solution containing empty PICsomes was prepared. Thereafter, 11.4 mg of α-galactosidase (hereinafter referred to as “α-GAL”) was dissolved in 5.7 mL of a 10 mM phosphate buffer (PB, pH 7.4, 0 mM NaCl) to prepare a 2 mg/mL α-GAL solution.\nAn aliquot (1 mL) was taken from the 2 mg/mL α-GAL solution and mixed with 1 mL of the solution containing empty PICsomes. The solution mixture was stirred by a Vortex mixer for 2 minutes (2000 rpm). Thereafter, to the solution, a PB solution (5.6 mL) containing a water soluble condensing agent, EDC (10 mg/mL) was added. The mixture was allowed to stand still overnight to crosslink a polyion complex. […] A solution of fluorescence labeled α-GAL was prepared in the same manner as above.\nEnzyme activity was evaluated with respect to free α-GAL and encapsulated α-GAL, respectively. […] Gal-AMC is decomposed by the enzyme activity of α-GAL to produce 7-amino-4-methyl coumarin (also referred to as “AMC”), which emits fluorescence (Ex/Em=350 nm/450 nm).\nMore specifically, first, PBS solutions of Gal-AMC, free α-GAL, and encapsulated α-GAL were each placed in a thermostatic chamber and allowed to stand still at 37° C. […] The plate was placed in a multiplate reader kept at 37° C. in advance and fluorescence intensity was measured periodically for a predetermined time. […]"}}}
{"smiles": "Cc1cc(=O)oc2cc(N[C@H]3O[C@H](CO)[C@H](O)[C@H](O)[C@H]3O)ccc12", "note": "[Gal-AMC, α-galactosyl-β-(7-amide-4-methylcoumarin)]", "values": [{"measurement": "Km", "setting": "[1]", "result": 180, "unit": "µM"}, {"measurement": "Km", "setting": "[2]", "result": 190, "unit": "µM"}]}
